Experimental data from PubChem BioAssay AID1745844 (Carcinogenic Potency Database (CPDB), 2022).
Activity calls are given as the source filed them. How the calls were made is not given here.

Test system: rodent lifetime carcinogenesis bioassay, tumor incidence TD50
Assay: carcinogenic potency in animals, long-term in vivo studies, CPDB compilation (AID 1745844)
Conditions: for TD50: i.p., dosed 26 weeks; for carcinogen call: strain F344/DuCrj, in feed, lesion: one or several types, types not named, dosed 54 weeks, study length 54 weeks

CN(N=O)C(=O)N[C@@H](C=O)[C@@H](O)[C@H](O)[C@H](O)CO
TD50 (mouse, strain Swiss, females, site: any site (literature study), lesion: benign tumor, study length 78 weeks): 0.188 mg/kg/day | TD50 (mouse, strain Swiss, females, site: any site (literature study), lesion: malignant tumor, study length 78 weeks): 6.32 mg/kg/day | TD50 (mouse, strain Swiss, females, site: any site (literature study), lesion: several types, types named in the paper, study length 78 weeks): 0.486 mg/kg/day | TD50 (mouse, strain Swiss, females, site: kidney, lesion: adenoma, study length 78 weeks): 1.39 mg/kg/day | TD50 (mouse, strain Swiss, females, site: lung, lesion: several types, types named in the paper, study length 78 weeks): 0.193 mg/kg/day | TD50 (mouse, strain Swiss, females, site: uterus, lesion: sarcoma, study length 78 weeks): 13.9 mg/kg/day | TD50 (mouse, strain Swiss, males, site: any site (literature study), lesion: benign tumor, study length 72 weeks): 0.698 mg/kg/day | TD50 (mouse, strain Swiss, males, site: any site (literature study), lesion: malignant tumor, study length 72 weeks): 3.53 mg/kg/day | TD50 (mouse, strain Swiss, males, site: any site (literature study), lesion: several types, types named in the paper, study length 72 weeks): 0.217 mg/kg/day | TD50 (mouse, strain Swiss, males, site: kidney, lesion: tubular-cell adenoma, study length 72 weeks): 2.44 mg/kg/day | TD50 (mouse, strain Swiss, males, site: liver, lesion: several types, types named in the paper, study length 72 weeks): 27.3 mg/kg/day | TD50 (mouse, strain Swiss, males, site: lung, lesion: several types, types named in the paper, study length 72 weeks): 0.462 mg/kg/day | TD50 (rat, strain Charles River CD (Sprague-Dawley), females, site: any site (literature study), lesion: malignant tumor, study length 78 weeks): 0.363 mg/kg/day | TD50 (rat, strain Charles River CD (Sprague-Dawley), females, site: any site (literature study), lesion: several types, types named in the paper, study length 78 weeks): 1.14 mg/kg/day | TD50 (rat, strain Charles River CD (Sprague-Dawley), females, site: kidney, lesion: several types, types named in the paper, study length 78 weeks): 1.27 mg/kg/day | TD50 (rat, strain Charles River CD (Sprague-Dawley), females, site: liver, lesion: cavernous hemangioma, study length 78 weeks): 5.63 mg/kg/day | TD50 (rat, strain Charles River CD (Sprague-Dawley), females, site: liver, lesion: several types, types named in the paper, study length 78 weeks): 4.43 mg/kg/day | TD50 (rat, strain Charles River CD (Sprague-Dawley), females, site: mammary gland, lesion: carcinoma, study length 78 weeks): 1.41 mg/kg/day | TD50 (rat, strain Charles River CD (Sprague-Dawley), females, site: uterus, lesion: sarcoma, study length 78 weeks): 2.46 mg/kg/day | TD50 (rat, strain Charles River CD (Sprague-Dawley), males, site: any site (literature study), lesion: benign tumor, study length 78 weeks): 16.8 mg/kg/day | TD50 (rat, strain Charles River CD (Sprague-Dawley), males, site: any site (literature study), lesion: malignant tumor, study length 78 weeks): 1.03 mg/kg/day | TD50 (rat, strain Charles River CD (Sprague-Dawley), males, site: any site (literature study), lesion: several types, types named in the paper, study length 78 weeks): 0.751 mg/kg/day | TD50 (rat, strain Charles River CD (Sprague-Dawley), males, site: kidney, lesion: several types, types named in the paper, study length 78 weeks): 0.776 mg/kg/day | TD50 (rat, strain Charles River CD (Sprague-Dawley), males, site: liver, lesion: liver-cell carcinoma, study length 78 weeks): 20.4 mg/kg/day

CCCCCCCCCCCCCCCC(=O)CC(=O)CCCCCCCCCCCCCCC
carcinogen call (rat, females, site: colon): negative (inactive) | carcinogen call (rat, females, site: mammary gland): negative (inactive)
